Where two headings read alike, the source gives them in different places.
Assays:
[1] = biological target: T1, ROCK1 (Homo sapiens (Human), UniProt Q13464); assay: biochemical
[2] = biological target: MRCKβ (Homo sapiens (Human), UniProt Q9Y5S2); assay: MRCKβ kinase assay (IMAP fluorescence polarization); format: biochemical; conditions: 1 μM ATP; read-out: MRCK-B Average Ki
Source text: (§1) MRCKα, MRCKβ, ROCK1 and ROCK2 Kinase Assays

[3] = biological target: ROCK2 (Homo sapiens (Human), UniProt O75116); assay: ROCK2 kinase assay (IMAP fluorescence polarization); format: biochemical; conditions: 1 μM ATP; read-out: ROCK2 Average Ki
[4] = biological target: MRCKα (Homo sapiens (Human), UniProt Q5VT25); assay: MRCKα kinase assay (IMAP fluorescence polarization); format: biochemical; conditions: 1 μM ATP; read-out: MRCK-a Average Ki
Source text: as §1

[5] = biological target: T1, ROCK1; conditions: read-out: ROCK1 Average Ki; 1 μM ATP

T1 sequence (Q13464 2-1354 limits assumed): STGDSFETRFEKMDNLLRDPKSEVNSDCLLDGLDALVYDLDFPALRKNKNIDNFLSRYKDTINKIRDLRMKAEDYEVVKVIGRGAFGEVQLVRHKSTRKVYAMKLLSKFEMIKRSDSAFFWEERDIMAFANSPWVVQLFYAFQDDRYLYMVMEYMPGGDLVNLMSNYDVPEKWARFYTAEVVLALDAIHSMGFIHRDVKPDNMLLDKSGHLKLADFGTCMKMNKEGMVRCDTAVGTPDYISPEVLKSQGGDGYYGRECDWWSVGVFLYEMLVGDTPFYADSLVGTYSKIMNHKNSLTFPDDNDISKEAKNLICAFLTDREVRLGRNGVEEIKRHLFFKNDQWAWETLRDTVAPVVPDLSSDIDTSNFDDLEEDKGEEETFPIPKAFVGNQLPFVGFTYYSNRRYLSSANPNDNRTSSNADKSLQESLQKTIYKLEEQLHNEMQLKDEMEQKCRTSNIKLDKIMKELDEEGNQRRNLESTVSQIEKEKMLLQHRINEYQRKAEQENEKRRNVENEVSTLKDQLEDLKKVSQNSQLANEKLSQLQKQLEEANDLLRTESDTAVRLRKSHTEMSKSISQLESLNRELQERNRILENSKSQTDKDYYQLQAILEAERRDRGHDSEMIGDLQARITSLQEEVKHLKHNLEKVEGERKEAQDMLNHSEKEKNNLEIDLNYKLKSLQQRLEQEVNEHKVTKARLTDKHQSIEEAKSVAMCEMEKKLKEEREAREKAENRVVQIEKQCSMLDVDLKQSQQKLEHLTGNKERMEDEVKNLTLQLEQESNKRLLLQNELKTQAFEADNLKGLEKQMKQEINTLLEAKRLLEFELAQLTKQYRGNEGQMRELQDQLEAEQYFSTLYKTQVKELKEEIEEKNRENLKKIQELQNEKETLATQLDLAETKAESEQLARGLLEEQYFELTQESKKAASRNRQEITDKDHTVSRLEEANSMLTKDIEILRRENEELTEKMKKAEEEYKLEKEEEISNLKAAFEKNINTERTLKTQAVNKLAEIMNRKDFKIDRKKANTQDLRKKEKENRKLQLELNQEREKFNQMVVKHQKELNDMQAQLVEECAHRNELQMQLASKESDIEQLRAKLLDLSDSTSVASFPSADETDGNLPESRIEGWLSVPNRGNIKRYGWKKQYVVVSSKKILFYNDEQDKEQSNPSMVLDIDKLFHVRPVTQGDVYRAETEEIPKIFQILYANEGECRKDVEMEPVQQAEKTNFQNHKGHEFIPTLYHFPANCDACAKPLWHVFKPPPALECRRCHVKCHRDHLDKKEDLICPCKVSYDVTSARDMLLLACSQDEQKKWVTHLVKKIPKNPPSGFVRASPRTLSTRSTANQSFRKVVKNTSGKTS
Chain of MRCKα (Q5VT25 whole entry): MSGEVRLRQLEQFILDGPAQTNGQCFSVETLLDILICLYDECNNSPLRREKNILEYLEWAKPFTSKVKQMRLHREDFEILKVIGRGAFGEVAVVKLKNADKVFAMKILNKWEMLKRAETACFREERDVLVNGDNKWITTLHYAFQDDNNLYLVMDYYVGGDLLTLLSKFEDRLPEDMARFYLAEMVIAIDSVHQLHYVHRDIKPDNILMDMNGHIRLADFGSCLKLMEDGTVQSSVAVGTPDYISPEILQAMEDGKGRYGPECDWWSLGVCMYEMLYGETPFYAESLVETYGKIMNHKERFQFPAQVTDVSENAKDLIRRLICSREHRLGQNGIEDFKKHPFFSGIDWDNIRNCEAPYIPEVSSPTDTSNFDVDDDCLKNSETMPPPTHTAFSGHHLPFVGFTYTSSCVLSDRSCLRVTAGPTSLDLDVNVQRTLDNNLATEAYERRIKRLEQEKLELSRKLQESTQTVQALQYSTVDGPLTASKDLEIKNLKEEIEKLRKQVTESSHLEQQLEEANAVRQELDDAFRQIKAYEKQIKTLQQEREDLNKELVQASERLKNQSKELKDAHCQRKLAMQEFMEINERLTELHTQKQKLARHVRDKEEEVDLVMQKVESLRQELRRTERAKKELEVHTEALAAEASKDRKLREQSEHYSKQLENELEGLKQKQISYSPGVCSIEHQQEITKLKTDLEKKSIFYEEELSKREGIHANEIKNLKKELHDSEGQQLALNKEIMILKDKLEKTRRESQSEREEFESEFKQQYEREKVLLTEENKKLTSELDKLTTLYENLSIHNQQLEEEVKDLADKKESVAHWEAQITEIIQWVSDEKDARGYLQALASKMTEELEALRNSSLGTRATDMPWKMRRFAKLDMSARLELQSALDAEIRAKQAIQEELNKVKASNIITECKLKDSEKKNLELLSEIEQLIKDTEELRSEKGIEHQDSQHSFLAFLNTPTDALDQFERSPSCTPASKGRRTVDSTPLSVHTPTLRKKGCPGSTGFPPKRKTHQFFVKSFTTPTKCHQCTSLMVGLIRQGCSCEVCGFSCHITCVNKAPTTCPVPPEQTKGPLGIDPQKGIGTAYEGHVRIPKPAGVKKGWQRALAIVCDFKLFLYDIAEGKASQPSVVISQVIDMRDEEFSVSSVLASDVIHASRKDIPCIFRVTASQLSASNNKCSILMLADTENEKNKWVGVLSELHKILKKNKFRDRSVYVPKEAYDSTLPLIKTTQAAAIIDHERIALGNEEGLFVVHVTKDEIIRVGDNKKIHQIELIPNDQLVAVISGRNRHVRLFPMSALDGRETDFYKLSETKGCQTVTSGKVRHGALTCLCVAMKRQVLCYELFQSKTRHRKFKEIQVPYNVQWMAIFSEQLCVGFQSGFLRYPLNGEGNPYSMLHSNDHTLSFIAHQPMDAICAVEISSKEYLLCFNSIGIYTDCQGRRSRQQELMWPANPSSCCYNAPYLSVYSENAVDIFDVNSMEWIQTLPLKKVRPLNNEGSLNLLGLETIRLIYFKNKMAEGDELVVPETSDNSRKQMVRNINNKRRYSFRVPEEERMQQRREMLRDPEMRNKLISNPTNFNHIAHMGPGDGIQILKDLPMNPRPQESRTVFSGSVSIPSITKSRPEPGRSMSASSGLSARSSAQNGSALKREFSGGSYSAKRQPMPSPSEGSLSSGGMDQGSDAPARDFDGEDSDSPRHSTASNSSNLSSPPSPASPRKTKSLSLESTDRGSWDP
Chain of ROCK2 (O75116 whole entry): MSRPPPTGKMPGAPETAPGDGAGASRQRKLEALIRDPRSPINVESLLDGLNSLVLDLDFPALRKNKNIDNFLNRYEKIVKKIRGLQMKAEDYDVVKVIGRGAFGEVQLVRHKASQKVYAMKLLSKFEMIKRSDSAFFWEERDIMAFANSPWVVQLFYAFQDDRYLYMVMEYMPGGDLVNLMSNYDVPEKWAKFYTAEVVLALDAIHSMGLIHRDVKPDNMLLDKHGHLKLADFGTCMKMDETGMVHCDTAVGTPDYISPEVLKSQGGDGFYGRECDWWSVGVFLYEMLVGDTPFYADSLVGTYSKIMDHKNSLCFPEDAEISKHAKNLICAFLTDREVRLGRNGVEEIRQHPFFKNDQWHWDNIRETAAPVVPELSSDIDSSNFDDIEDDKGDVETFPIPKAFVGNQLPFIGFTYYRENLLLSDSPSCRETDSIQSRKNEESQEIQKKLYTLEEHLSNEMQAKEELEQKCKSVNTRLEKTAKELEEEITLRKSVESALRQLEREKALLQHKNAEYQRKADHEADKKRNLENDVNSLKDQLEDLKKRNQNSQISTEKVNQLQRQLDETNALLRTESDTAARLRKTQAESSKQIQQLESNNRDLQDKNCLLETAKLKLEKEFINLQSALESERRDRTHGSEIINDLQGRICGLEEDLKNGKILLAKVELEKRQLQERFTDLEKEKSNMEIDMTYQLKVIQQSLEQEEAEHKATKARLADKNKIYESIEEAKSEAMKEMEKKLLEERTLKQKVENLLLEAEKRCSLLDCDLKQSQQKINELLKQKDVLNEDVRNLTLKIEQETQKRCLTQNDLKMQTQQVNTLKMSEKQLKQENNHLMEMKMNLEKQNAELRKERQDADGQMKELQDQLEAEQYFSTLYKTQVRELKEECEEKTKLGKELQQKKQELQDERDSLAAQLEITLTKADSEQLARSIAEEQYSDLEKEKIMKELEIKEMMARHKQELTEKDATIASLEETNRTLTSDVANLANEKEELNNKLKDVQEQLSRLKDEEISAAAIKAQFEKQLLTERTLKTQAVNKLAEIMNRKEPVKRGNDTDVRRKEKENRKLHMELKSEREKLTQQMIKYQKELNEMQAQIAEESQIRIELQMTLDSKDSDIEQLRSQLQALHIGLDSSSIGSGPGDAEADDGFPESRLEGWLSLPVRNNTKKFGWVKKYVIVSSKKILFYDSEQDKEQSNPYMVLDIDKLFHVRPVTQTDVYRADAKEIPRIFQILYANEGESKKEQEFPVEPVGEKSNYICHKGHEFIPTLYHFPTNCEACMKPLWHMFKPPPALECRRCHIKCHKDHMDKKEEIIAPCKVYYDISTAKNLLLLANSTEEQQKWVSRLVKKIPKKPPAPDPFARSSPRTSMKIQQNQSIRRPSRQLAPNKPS

`Nc1cncc(-c2c[nH]c3nccc(N4CCCCC4)c23)c1` [Example E6, 5-[4-(1-piperidyl)-1H-pyrrolo[2,3-b]pyridin-3-yl]pyridin-3-amine] was tested, and the Ki [1] was 3.5 nM, the Ki [2] was 1.11 nM and the Ki [3] was 1.9 nM.

For `N#Cc1c[nH]c2nccc(N3CCC[C@H]3CO)c12` [Example E38, 4-[(2S)-2-(hydroxymethyl)pyrrolidin-1-yl]-1H-pyrrolo[2,3-b]pyridine-3-carbonitrile], the Ki [1] was 16.7 nM, the Ki [2] was 5.08 nM and the Ki [3] was 12.7 nM.

For `N#Cc1c[nH]c2nccc(N3CCC[C@@H]3CO)c12` [Example E39, 4-[(2R)-2-(hydroxymethyl)pyrrolidin-1-yl]-1H-pyrrolo[2,3-b]pyridine-3-carbonitrile], the Ki [1] was 103 nM, the Ki [2] was 29.7 nM and the Ki [3] was 86.8 nM.

For `N#Cc1c[nH]c2nccc(N3CCC[C@H]3COc3ccccc3)c12` [Example E40, 4-[(2S)-2-(phenoxymethyl)pyrrolidin-1-yl]-1H-pyrrolo[2,3-b]pyridine-3-carbonitrile], the Ki [1] was 2150 nM, the Ki [2] was 247 nM and the Ki [3] was 1070 nM.

With `c1cc(-c2c[nH]c3nccc(N4CCC[C@H](NC5CC5)C4)c23)ncn1` [Example E41, (3S)—N-cyclopropyl-1-(3-pyrimidin-4-yl-1H-pyrrolo[2,3-b]pyridin-4-yl)piperidin-3-amine] the Ki [1] was 34.4 nM and the Ki [2] was 0.202 nM.

With `CN(C)C1CCCN(c2ccnc3[nH]cc(-c4cncnc4)c23)C1` (stereo not shown) [Example E60, N,N-dimethyl-1-(3-pyrimidin-5-yl-1H-pyrrolo[2,3-b]pyridin-4-yl)piperidin-3-amine] the Ki [1] was 404 nM, the Ki [2] was 13.6 nM and the Ki [3] was 201 nM.

In the case of `Brc1cnc2[nH]cc(-c3cc[nH]n3)c2c1N1CCCCC1` [Example E70, 5-bromo-4-(1-piperidyl)-3-(1H-pyrazol-3-yl)-1H-pyrrolo[2,3-b]pyridine], the Ki [1] is reported as 1300 nM, the Ki [2] is reported as 346 nM and the Ki [3] is reported as 276 nM.

In the case of `NCC1CCCN(c2ccnc3[nH]cc(-c4cncnc4)c23)C1` (stereo not shown) [Example E86, [1-(3-pyrimidin-5-yl-1H-pyrrolo[2,3-b]pyridin-4-yl)-3-piperidyl]methanamine], the Ki [2] is reported as 1.85 nM, the Ki [4] is reported as 4.6 nM and the Ki [3] is reported as 10.5 nM. It also gave a Ki [5] of 8.2 nM.

`OC1CCN([C@H]2CCCN(c3ccnc4[nH]cc(-c5cncnc5)c34)C2)CC1` [Example E92, 1-[(3S)-1-(3-pyrimidin-5-yl-1H-pyrrolo[2,3-b]pyridin-4-yl)-3-piperidyl]piperidin-4-ol] gave a Ki [1] of 5000 nM, a Ki [2] of 4.97 nM and a Ki [3] of 1510 nM.

For `FC1CCN([C@H]2CCCN(c3ccnc4[nH]cc(-c5cncnc5)c34)C2)C1` (stereo partly drawn) [Example E95, 4-[(3S)-3-(3-fluoropyrrolidin-1-yl)-1-piperidyl]-3-pyrimidin-5-yl-1H-pyrrolo[2,3-b]pyridine], the Ki [2] was 6.98 nM, the Ki [4] was 19.4 nM and the Ki [3] was 395 nM. It also gave a Ki [5] of 689 nM.

For `c1ncc(-c2c[nH]c3nccc(N4CCC[C@H](N5CCC5)C4)c23)cn1` [Example E97, 4-[(3S)-3-(azetidin-1-yl)-1-piperidyl]-3-pyrimidin-5-yl-1H-pyrrolo[2,3-b]pyridine], the Ki [2] was 3.93 nM, the Ki [4] was 5.2 nM and the Ki [3] was 366 nM. The Ki [5] was 686 nM.

`c1ncc(-c2c[nH]c3nccc(N4CCC[C@H](N5CCCCC5)C4)c23)cn1` [Example E98, 4-[(3S)-3-(1-piperidyl)-1-piperidyl]-3-pyrimidin-5-yl-1H-pyrrolo[2,3-b]pyridine] was tested, and the Ki [2] was 4.24 nM, the Ki [4] was 7.9 nM and the Ki [3] was 979 nM. For the same molecule, the Ki [5] was 2530 nM.

In the case of `c1ncc(-c2c[nH]c3nccc(N4CCC[C@H](N5CCCC5)C4)c23)cn1` [Example E99, 3-pyrimidin-5-yl-4-[(3S)-3-pyrrolidin-1-yl-1-piperidyl]-1H-pyrrolo[2,3-b]pyridine], the Ki [2] is reported as 3.81 nM, the Ki [4] is reported as 5.8 nM and the Ki [3] is reported as 603 nM. The Ki [5] was 1680 nM.

Work on `C[C@@H]1CCCN1c1ccnc2[nH]cc(C#N)c12` [Example E110, 4-[(2R)-2-methylpyrrolidin-1-yl]-1H-pyrrolo[2,3-b]pyridine-3-carbonitrile] yielded a Ki [2] of 1.44 nM, a Ki [4] of 4.6 nM and a Ki [3] of 2.44 nM. For the same molecule, the Ki [5] was 2.77 nM.

For `C[C@H]1CCCN1c1ccnc2[nH]cc(C#N)c12` [Example E111, 4-[(2S)-2-methylpyrrolidin-1-yl]-1H-pyrrolo[2,3-b]pyridine-3-carbonitrile], the Ki [2] was 39.7 nM, the Ki [4] was 123 nM and the Ki [3] was 25.5 nM. For the same molecule, the Ki [5] was 85.2 nM.

`c1cc(N2CCC[C@]3(CCCCN3)C2)c2c(-c3ncsn3)c[nH]c2n1` [Example E115, 3-[4-[(6R)-1,8-diazaspiro[5.5]undecan-8-yl]-1H-pyrrolo[2,3-b]pyridin-3-yl]-1,2,4-thiadiazole] showed a Ki [1] of at least 100000 nM and a Ki [2] of 2.48 nM.

In the case of `c1cc(-c2c[nH]c3nccc(N4CCC[C@]5(CCCCN5)C4)c23)ncn1` [Example E118, (6R)-8-(3-pyrimidin-4-yl-1H-pyrrolo[2,3-b]pyridin-4-yl)-1,8-diazaspiro[5.5]undecane], the Ki [2] is reported as 1.47 nM, the Ki [4] is reported as 2.89 nM and the Ki [3] is reported as 299 nM. The Ki [5] was 50300 nM.

With `c1cnc(-c2c[nH]c3nccc(N4CCCC5(CCCCN5)C4)c23)nc1` (stereo not shown) [Example E157, 8-(3-pyrimidin-2-yl-1H-pyrrolo[2,3-b]pyridin-4-yl)-1,8-diazaspiro[5.5]undecane] the Ki [2] was 1.04 nM, the Ki [4] was 1.34 nM and the Ki [3] was 100000 nM. The Ki [5] was 100000 nM.

`c1cnnc(-c2c[nH]c3nccc(N4CCCC5(CCCCN5)C4)c23)c1` (stereo not shown) [Example E175, 8-(3-pyridazin-3-yl-1H-pyrrolo[2,3-b]pyridin-4-yl)-1,8-diazaspiro[5.5]undecane] gave a Ki [2] of 1.5 nM, a Ki [4] of 0.257 nM and a Ki [3] of 547 nM. The Ki [5] was 1860 nM.

`c1cc(-c2c[nH]c3nccc(N4CCCCC4)c23)[nH]n1` [Example E181, 4-(1-piperidyl)-3-(1H-pyrazol-5-yl)-1H-pyrrolo[2,3-b]pyridine] showed a Ki [2] of 9.45 nM, a Ki [4] of 9.1 nM and a Ki [3] of 15.4 nM. It also gave a Ki [5] of 25 nM.

With `c1cncc(-c2c[nH]c3nccc(N4CCCCC4)c23)c1` [Example E182, 4-(1-piperidyl)-3-(3-pyridyl)-1H-pyrrolo[2,3-b]pyridine] the Ki [2] was 18.8 nM, the Ki [4] was 9 nM and the Ki [3] was 90 nM. It also gave a Ki [5] of 132 nM.

With `c1cc(N2CCCCC2)c2c(-c3cn[nH]c3)c[nH]c2n1` [Example E183, 4-(1-piperidyl)-3-(1H-pyrazol-4-yl)-1H-pyrrolo[2,3-b]pyridine] the Ki [2] was 6.03 nM, the Ki [4] was 12.6 nM and the Ki [3] was 12.3 nM. The Ki [5] was 31 nM.

`N#Cc1c[nH]c2nccc(N3CCC4(CCCCN4)C3)c12` (stereo not shown) [Example E184, 4-(2,6-diazaspiro[4.5]decan-2-yl)-1H-pyrrolo[2,3-b]pyridine-3-carbonitrile] gave a Ki [1] of 21.9 nM.

In the case of `N#Cc1c[nH]c2nccc(N3CCC[C@]4(CCCCN4)C3)c12` [Example E186, 4-[(6R)-1,8-diazaspiro[5.5]undecan-8-yl]-1H-pyrrolo[2,3-b]pyridine-3-carbonitrile], the Ki [1] is reported as 347 nM.

In the case of `Cn1cc(-c2c[nH]c3nccc(N4CCCC5(CCCCN5)C4)c23)cn1` (stereo not shown) [Example E188, 8-[3-(1-methylpyrazol-4-yl)-1H-pyrrolo[2,3-b]pyridin-4-yl]-1,8-diazaspiro[5.5]undecane], the Ki [2] is reported as 1.52 nM, the Ki [4] is reported as 0.598 nM and the Ki [3] is reported as 28.8 nM. For the same molecule, the Ki [5] was 93.6 nM.

For `c1cnc(-c2c[nH]c3nccc(N4CCCC5(CCCCN5)C4)c23)cn1` (stereo not shown) [Example E189, 8-(3-pyrazin-2-yl-1H-pyrrolo[2,3-b]pyridin-4-yl)-1,8-diazaspiro[5.5]undecane], the Ki [2] was 1.31 nM, the Ki [4] was 0.131 nM and the Ki [3] was 167 nM. It also gave a Ki [5] of 643 nM.

Work on `c1ncc(-c2c[nH]c3nccc(N4CCC5(CCCNC5)CC4)c23)cn1` [Example E193, 9-(3-pyrimidin-5-yl-1H-pyrrolo[2,3-b]pyridin-4-yl)-2,9-diazaspiro[5.5]undecane] yielded a Ki [2] of 0.969 nM, a Ki [4] of 0.217 nM and a Ki [3] of 15.2 nM. It also gave a Ki [5] of 22.3 nM.

For `c1ncc(-c2c[nH]c3nccc(N4CCCC5(CCCNC5)C4)c23)cn1` (stereo not shown) [Example E194, 2-(3-pyrimidin-5-yl-1H-pyrrolo[2,3-b]pyridin-4-yl)-2,8-diazaspiro[5.5]undecane], the Ki [2] was 2.73 nM, the Ki [4] was 0.652 nM and the Ki [3] was 54 nM. The Ki [5] was 83.6 nM.

In the case of `c1ncc(-c2c[nH]c3nccc(N4CCCC5(CCCN5)C4)c23)cn1` (stereo not shown) [Example E195, 9-(3-pyrimidin-5-yl-1H-pyrrolo[2,3-b]pyridin-4-yl)-1,9-diazaspiro[4.5]decane], the Ki [2] is reported as 3.27 nM, the Ki [4] is reported as 4.69 nM and the Ki [3] is reported as 174 nM. The Ki [5] was 332 nM.

For `c1ncc(-c2c[nH]c3nccc(N4CCCC5(CCCCN5)C4)c23)cn1` (stereo not shown) [Example E196, 8-(3-pyrimidin-5-yl-1H-pyrrolo[2,3-b]pyridin-4-yl)-1,8-diazaspiro[5.5]undecane], the Ki [2] was 134000 nM, the Ki [4] was 5.1 nM and the Ki [3] was 177 nM. It also gave a Ki [5] of 213 nM.

`c1ncc(-c2c[nH]c3nccc(OC4CCCNCC4)c23)cn1` (stereo not shown) [Example E216, 4-(azepan-4-yloxy)-3-pyrimidin-5-yl-1H-pyrrolo[2,3-b]pyridine] gave a Ki [2] of 1.78 nM, a Ki [4] of 1.13 nM and a Ki [3] of 55.8 nM. For the same molecule, the Ki [5] was 66.8 nM.

Work on `c1ncc(-c2c[nH]c3nccc(OC[C@@H]4CCNC4)c23)cn1` [Example E219, 3-pyrimidin-5-yl-4-[[(3R)-pyrrolidin-3-yl]methoxy]-1H-pyrrolo[2,3-b]pyridine] yielded a Ki [2] of 3.71 nM, a Ki [4] of 2.52 nM and a Ki [3] of 52.6 nM. For the same molecule, the Ki [5] was 57.6 nM.

Work on `c1ncc(-c2c[nH]c3nccc(O[C@H]4CCCNC4)c23)cn1` [Example E222, 4-[[(3S)-3-piperidyl]oxy]-3-pyrimidin-5-yl-1H-pyrrolo[2,3-b]pyridine] yielded a Ki [2] of 50.6 nM, a Ki [4] of 28.4 nM and a Ki [3] of 50700 nM. The Ki [5] was 50900 nM.

— US11447505B1, “Pyrrolo[2,3-b]pyridine compounds and their use in the treatment of cancer” (priority 2017, dated 2022)
